Test results reported in ChEMBL document CHEMBL4765281, “Development of a novel nitric oxide (NO) production inhibitor with potential therapeutic effect on chronic inflammation” (Eur J Med Chem, 2020).
Blank lines part the entries; values can stand above or below the compound they belong to. Active and inactive are the calls of the source. The calls are words filed in the database; no cut-off is given here.

Legend:
RAW264.7 [1] = test: Inhibition of LPS-induced nitric oxide production in mouse RAW264.7 cells at 10 uM measured after 24 hrs by Griess reagent based assay relative to control; assay type: functional
RAW264.7 [2] = test: Inhibition of LPS-induced nitric oxide production in mouse RAW264.7 cells measured after 24 hrs by Griess reagent based assay; assay type: functional, cell-based; conditions: RAW264.7, 24 h
RAW264.7 [3] = test: Cytotoxicity against mouse RAW264.7 cells assessed as reduction in cell viability measured after 24 hrs by MTT assay; assay type: cell-based; conditions: RAW264.7, 24 h
RAW264.7 [4] = test: Inhibition of LPS-induced nitric oxide production in mouse RAW264.7 cells; assay type: functional, cell-based
Mus musculus [5] = test: (§1) Antiinflammatory activity in DBA/1 mouse model of collagen-induced arthritis assessed as CD4 and CD8- double positive cell expression in spleen lymphocytes at 10 mg/kg/day, po administered starting from day 30 and measured on day 63 by APC-conjugated anti-mouse CD4 and FITC-conjugated anti-mouse CD8 staining based flow cytometry relative to control; assay type: functional; conditions: time 33 day
RAW264.7 [6] = test: Inhibition of LPS-induced iNOS expression in mouse RAW264.7 cells measured after 24 hrs by Western blot analysis; assay type: functional, cell-based
Mus musculus [7] = test: Antiinflammatory activity in DBA/1 mouse model of collagen-induced arthritis assessed as reduction in arthritis score at 10 mg/kg/day, po administered starting from day 30; assay type: functional, organism-based
Mus musculus [8] = test: Antiinflammatory activity in DBA/1 mouse model of collagen-induced arthritis assessed as reduction in paw redness at 10 mg/kg/day, po administered starting from day 30; assay type: functional, organism-based
Mus musculus [9] = test: Antiinflammatory activity in DBA/1 mouse model of collagen-induced arthritis assessed as appearance of intact joint structure at 10 mg/kg/day, po administered starting from day 30 and measured on day 63 by H and E/Safranin O staining based microscopic analysis; assay type: functional, organism-based; conditions: time 33.0 day
Mus musculus [10] = test: Antiinflammatory activity in DBA/1 mouse model of collagen-induced arthritis assessed as reduction in cartilage destruction at 10 mg/kg/day, po administered starting from day 30 and measured on day 63 by H and E/Safranin O staining based microscopic analysis; assay type: functional, organism-based; conditions: time 33.0 day
Mus musculus [11] = test: Antiinflammatory activity in DBA/1 mouse model of collagen-induced arthritis assessed as reduction in TNFalpha mRNA expression in joint tissue at 10 mg/kg/day, po administered starting from day 30 and measured on day 63 by RT-PCR analysis; assay type: functional, organism-based; conditions: time 33.0 day
Mus musculus [12] = test: Antiinflammatory activity in DBA/1 mouse model of collagen-induced arthritis assessed as reduction in IL-1beta mRNA expression in joint tissue at 10 mg/kg/day, po administered starting from day 30 and measured on day 63 by RT-PCR analysis; assay type: functional, organism-based; conditions: time 33.0 day
Mus musculus [13] = test: Antiinflammatory activity in DBA/1 mouse model of collagen-induced arthritis assessed as reduction in IL-6 mRNA expression in joint tissue at 10 mg/kg/day, po administered starting from day 30 and measured on day 63 by RT-PCR analysis; assay type: functional, organism-based; conditions: time 33.0 day
Mus musculus [14] = test: as §1, with “CD8-positive” for “CD4 and CD8- double positive”; assay type: functional; conditions: time 33 day
Mus musculus [15] = test: as §1, with “CD4-positive” for “CD4 and CD8- double positive”; assay type: functional; conditions: time 33 day
Mus musculus [16] = test: as §1, with “CD8-positive” for “CD4 and CD8- double positive”, “lymph node derived” for “spleen”; assay type: functional; conditions: time 33 day
Mus musculus [17] = test: as §1, with “CD8-double” for “CD8- double”, “lymph node derived” for “spleen”; assay type: functional; conditions: time 33 day
Mus musculus [18] = test: as §1, with “CD4-positive” for “CD4 and CD8- double positive”, “lymph node derived” for “spleen”; assay type: functional; conditions: time 33 day
Rattus norvegicus [19] = test: Antiinflammatory activity in Lewis rat model of adjuvant-induced arthritis assessed as reduction in disease symptom at 10 mg/kg/day, po administered starting from day 14; assay type: functional, organism-based
Rattus norvegicus [20] = test: Antiinflammatory activity in Lewis rat model of adjuvant-induced arthritis assessed as reduction in arthritis score at 10 mg/kg/day, po administered starting from day 14; assay type: functional, organism-based
Rattus norvegicus [21] = test: Antiinflammatory activity in Lewis rat model of adjuvant-induced arthritis assessed as improvement in disease pathology at 10 mg/kg/day, po administered starting from day 14 and measured on day 28 by H and E/Safranin O staining based microscopic analysis; assay type: functional, organism-based; conditions: time 14.0 day

- IC50 (RAW264.7 [2]): 6.5 µM
SMILES: COc1cc(O)c(C(=O)/C=C/c2ccc(OCCCN3CCCC3)c(OC)c2)c(OC)c1
- inhibition at 10 µM (RAW264.7 [1]): 83.1%
- IC50 (RAW264.7 [3]): > 40 µM

SMILES: COc1cc(O)c(C(=O)/C=C/c2ccc(Br)cc2)c(OC)c1
- inhibition at 10 µM (RAW264.7 [1]): 70.2%

SMILES: COc1cc(O)c(C(=O)/C=C/c2ccc(OC)c(O)c2)c(OC)c1
- inhibition at 10 µM (RAW264.7 [1]): 70.6%

SMILES: COc1cc(O)c(C(=O)/C(C)=C/c2ccccc2)c(OC)c1
- inhibition at 10 µM (RAW264.7 [1]): 57.5%

- IC50 (RAW264.7 [4]): 10.2 µM
SMILES: CC1(C)C=Cc2c(ccc(C(=O)/C=C/c3ccc(O)cc3)c2O)O1

SMILES: COc1ccc(OC)c(/C=C(\F)C(=O)c2c(O)cc(OC)cc2OC)c1
- inhibition at 10 µM (RAW264.7 [1]): 42.6%

- IC50 (RAW264.7 [4]): 1.6 µM
SMILES: CC(C)=CCc1c(O)ccc(C(=O)/C=C/c2ccc(O)cc2)c1O [ISOBAVACHALCONE]

SMILES: COc1cccc(C2CC(=O)c3c(OC)cc(OC)cc3O2)c1 (stereo not drawn)
- inhibition at 10 µM (RAW264.7 [1]): 57.3%

SMILES: COc1cc(O)c(C(=O)/C(C)=C/c2ccc(C)cc2)c(OC)c1
- inhibition at 10 µM (RAW264.7 [1]): 56.8%

SMILES: COc1ccc(OC)c(/C=C/C(=O)c2c(O)cc(OC)cc2OC)c1
- inhibition at 10 µM (RAW264.7 [1]): 73.7%

- IC50 (RAW264.7 [2]): 3.6 µM
SMILES: COc1cccc(/C=C/C(=O)c2c(OC)cc(OC)cc2OC(C)=O)c1
- inhibition at 10 µM (RAW264.7 [1]): 84.6%
- IC50 (RAW264.7 [3]): 30.7 µM

- IC50 (RAW264.7 [4]): 4.19 µM
SMILES: COc1cc(C(=O)/C=C/c2cc(OC)c(OC)c(OC)c2)ccc1O

SMILES: COc1cccc(/C=C/C(=N\O)c2c(O)cc(OC)cc2OC)c1
- inhibition at 10 µM (RAW264.7 [1]): 46.4%

- IC50 (RAW264.7 [4]): 5.75 µM
SMILES: O=C(/C=C/c1ccccc1O)c1ccsc1

SMILES: COc1cc(O)c(C(=O)/C=C/c2ccc(O)cc2)c(OC)c1 [FLAVOKAWAIN C]
- inhibition at 10 µM (RAW264.7 [1]): 66.8%

- IC50 (RAW264.7 [4]): 0.6 µM
SMILES: COc1cccc(OC)c1C(=O)/C=C/c1ccc(N(C)C)cc1

- IC50 (RAW264.7 [4]): 11.3 µM
SMILES: CC(C)=CCc1cc(C(=O)/C=C/c2ccc(O)c(O)c2)c(O)cc1O [BROUSSOCHALCONE A]

- IC50 (RAW264.7 [2]): 2.7 µM
SMILES: CCOc1cc(OC)cc(OC)c1C(=O)/C=C/c1cccc(OC)c1
- inhibition at 10 µM (RAW264.7 [1]): 85.6%
- IC50 (RAW264.7 [3]): 34 µM

- IC50 (RAW264.7 [2]): 3.2 µM
SMILES: COc1cccc(/C=C/C(=O)c2ccc(OC)cc2O)c1
- inhibition at 10 µM (RAW264.7 [1]): 82.5%
- IC50 (RAW264.7 [3]): 29.7 µM

SMILES: COc1cc(O)c(C(=O)/C=C/c2ccc3c(c2)OCO3)c(OC)c1
- inhibition at 10 µM (RAW264.7 [1]): 70%

SMILES: COc1cccc(/C=C(\F)C(=O)c2c(O)cc(OC)cc2OC)c1
- inhibition at 10 µM (RAW264.7 [1]): 58.1%

SMILES: COc1ccc(/C=C/C(=O)c2ccccc2O)cc1
- inhibition at 10 µM (RAW264.7 [1]): 76.7%

SMILES: COc1cc(O)c(C(=O)/C=C/c2ccc(OCCCN3CCN(C)CC3)c(OC)c2)c(OC)c1
- inhibition at 10 µM (RAW264.7 [1]): 70.4%

- IC50 (RAW264.7 [2]): 2.4 µM
SMILES: COc1cccc(/C=C/C(=O)c2c(O)cc(OC)cc2OC)c1
- inhibition at 10 µM (RAW264.7 [1]): 86.9%
- IC50 (RAW264.7 [3]): 34 µM

- IC50 (RAW264.7 [4]): 7.8 µM
SMILES: COc1cccc(O)c1C(=O)/C=C/c1cccc(Br)c1

- IC50 (RAW264.7 [4]): 2.2 µM
SMILES: CC1(C)C=Cc2cc(/C=C/C(=O)c3ccc(O)cc3O)ccc2O1

- IC50 (RAW264.7 [2]): 6.4 µM
SMILES: COc1cc(O)c(C(=O)/C=C/c2ccc(OCCCN3CCOCC3)c(OC)c2)c(OC)c1
- Activity (Mus musculus [5]): 0.527%
- inhibition at 10 µM (RAW264.7 [1]): 84%
- IC50 (RAW264.7 [3]): > 80 µM
- inhibition (RAW264.7 [6]): Dose-dependent effect
- Activity (Mus musculus [7]): Active
- Activity (Mus musculus [8]): Active
- Activity (Mus musculus [9]): Active
- Activity (Mus musculus [10]): Active
- Activity (Mus musculus [11]): Active
- Activity (Mus musculus [12]): Active
- Activity (Mus musculus [13]): Active
- Activity (Mus musculus [14]): 28.7%
- Activity (Mus musculus [15]): 39.1%
- Activity (Mus musculus [16]): 27.4%
- Activity (Mus musculus [17]): 2.13%
- Activity (Mus musculus [18]): 29.3%
- Activity (Rattus norvegicus [19]): Active
- Activity (Rattus norvegicus [20]): Active
- Activity (Rattus norvegicus [21]): Active

SMILES: COc1cc(O)c(C(=O)/C(F)=C/c2ccccc2)c(OC)c1
- inhibition at 10 µM (RAW264.7 [1]): 47.4%

SMILES: COc1ccc(/C=C(\F)C(=O)c2c(O)cc(OC)cc2OC)cc1
- inhibition at 10 µM (RAW264.7 [1]): 50.3%
